Results published in patent US11912676B1, “N'-[(4-chlorobenzoyl)oxy]-1,3-benzothiazole-2-carboximidamide as an antitumor and antimicrobial compound” (KING FAISAL UNIVERSITY, priority 2023, dated 2024).

Legend:
[1] = test system: human prostate cancer cells (PC3); assay: Cytotoxicity by SRB assay, PC3 cells; type: cell-based; details: 0.01 μM to 100 μM, 72 h
Method: (§1) The human prostate cancer cells (PC3) and human osteosarcoma cells (MG-63) were obtained from Nawah Scientific Inc. (Mokatam, Cairo, Egypt) and cultured in DMEM (Dulbecco's modified eagle's medium), Gibco, USA, supplemented with fetal bovine serum (FBS) at a concentration of 10% and 100 U/mL of penicillin and streptomycin (PS). The Cells were incubated at 37° C. in a humidified environment that contained 5% CO2. Cells were seeded in 96-well plates as aliquots of 100 μL cell suspension and incubated in a complete media for 24 h. afterward, cells were treated with N′-[(4-chlorobenzoyl)oxy]-1,3-benzothiazole-2-carboximidamide at diverse concentrations ranging from 0.01 μM to 100 μM for 72 h. Then, cells were fixed at 4° C. for one hour with 150 μL of 10% trichloroacetic acid (TCA). After washing the cells five times with distilled water, 70 μL of sulforhodamine (SRB) solution (0.4% w/v) was added and incubated for 10 min at room temperature in a dark place. […] Then, 150 μL of Tris pH 10.5 (10 mM) was added, and the absorbance was measured at 540 nm using a BMG LABTECH®--FLUOstar Omega microplate reader (Ortenberg, Germany). Half maximal inhibitory concentrations (IC50) values were calculated for each experiment using GraphPad Prism 6 software. […] The inhibition was calculated using the following equation: Inhibition %=100−Average Viability

[2] = test system: human osteosarcoma cells (MG-63); assay: Cytotoxicity by SRB assay, MG-63 cells; type: cell-based; details: 0.01 μM to 100 μM, 72 h
Method: as §1

N/C(Cc1nc2ccccc2s1)=N\OC(=O)c1ccc(Cl)cc1
antiproliferative activity against PC3 cells [1]: excellent antiproliferative activities | antiproliferative activity against MG-63 cells [2]: excellent antiproliferative activities | melting point: 160 to 162 °C
